Reference: PMC7481407, “Inhibition of Pendrin by a small molecule reduces Lipopolysaccharide-induced acute Lung Injury” (Theranostics, 2020)

Molecular target: T1, pendrin (Homo sapiens, UniProt O43511)
T1 construct: gene SLC26A4; human wild-type pendrin expressed in human alveolar epithelial cells (hAEC)
T1 sequence (O43511 1-780): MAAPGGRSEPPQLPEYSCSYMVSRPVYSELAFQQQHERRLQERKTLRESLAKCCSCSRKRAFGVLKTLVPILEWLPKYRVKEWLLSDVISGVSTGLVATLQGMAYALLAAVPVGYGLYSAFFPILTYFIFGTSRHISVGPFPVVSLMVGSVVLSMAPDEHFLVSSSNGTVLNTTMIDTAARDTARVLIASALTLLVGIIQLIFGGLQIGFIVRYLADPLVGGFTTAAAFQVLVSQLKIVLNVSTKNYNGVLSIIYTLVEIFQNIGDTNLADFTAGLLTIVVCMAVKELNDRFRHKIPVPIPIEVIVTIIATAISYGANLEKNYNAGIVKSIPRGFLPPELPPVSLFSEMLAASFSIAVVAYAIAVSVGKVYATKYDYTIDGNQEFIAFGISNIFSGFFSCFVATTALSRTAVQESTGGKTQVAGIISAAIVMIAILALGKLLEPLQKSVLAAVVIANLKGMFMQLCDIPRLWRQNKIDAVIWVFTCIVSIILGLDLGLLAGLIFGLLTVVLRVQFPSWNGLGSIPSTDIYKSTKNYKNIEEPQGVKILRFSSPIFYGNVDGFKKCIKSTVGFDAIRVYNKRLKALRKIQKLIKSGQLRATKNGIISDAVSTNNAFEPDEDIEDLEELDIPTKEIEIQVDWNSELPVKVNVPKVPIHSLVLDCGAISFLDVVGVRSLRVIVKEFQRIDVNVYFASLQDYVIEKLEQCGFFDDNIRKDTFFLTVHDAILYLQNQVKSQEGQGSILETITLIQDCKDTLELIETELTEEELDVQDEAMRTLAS
Experiment: Cl-/SCN- exchange activity assay in pendrin-transfected human alveolar epithelial cells, dose-response
Format: cell-based

IC50: 4.7 ± 0.82 µM
Compound: CC(C)(C)c1ccc(C2=N/C(=C/c3cccs3)C(=O)O2)cc1 [YS-01]
